Test results: ChEMBL document CHEMBL5230096, “A comprehensive insight on the recent development of Cyclic Dependent Kinase inhibitors as anticancer agents” (Eur J Med Chem, 2020)

Tests used:
HL-60 = test: Antiproliferative activity against human HL-60 cells assessed as reduction in cell viability incubated for 72 hrs by MTT assay; assay type: functional, cell-based; conditions: HL-60, 72 h
CDK2/Cyclin A2 = CDK2/Cyclin A2 (Homo sapiens, UniProt P24941); test: Inhibition of CDK2/cyclin A2 (unknown origin) expressed in baculovirus expression system incubated for 1 hr using Ser/Thr12 Peptide as substrate in presence of ATP by Z-LYTE kinase assay
HCT-116 [1] = test: Antiproliferative activity against human HCT-116 cells assessed as reduction in cell viability incubated for 72 hrs by MTT assay; assay type: functional, cell-based; conditions: HCT-116, 72 h
A549 [2] = test: Antiproliferative activity against human A549 cells assessed as reduction in cell viability incubated for 72 hrs by MTT assay; assay type: functional, cell-based; conditions: A549, 72 h
A549 [3] = test: Antitumor activity against human A549 cells assessed as reduction in cell viability by MTT assay; assay type: functional, cell-based
[4] = biological target: Cyclin-dependent kinase 4 (Homo sapiens, UniProt P11802); test: Inhibition of CDK4 (unknown origin) by kinase assay
HeLa [5] = test: Antitumor activity against human HeLa cells assessed as reduction in cell viability by MTT assay; assay type: functional, cell-based
LS174T = test: Antitumor activity against human LS174T cells assessed as reduction in cell viability by MTT assay; assay type: functional, cell-based
Bel-7402 = test: Antitumor activity against human Bel-7402 cells assessed as reduction in cell viability by MTT assay; assay type: functional, cell-based
[6] = biological target: Cyclin-dependent kinase 9 (Homo sapiens, UniProt P50750); test: Inhibition of CDK9 (unknown origin) using TMB as substrate by spectrophotometric analysis
CCRF-CEM = test: Cytotoxicity against human CEM cells assessed as reduction in cell growth incubated for 72 hrs by Calcein AM assay; assay type: functional, cell-based
U-266 = test: Cytotoxicity against human U-266 cells assessed as reduction in cell growth incubated for 72 hrs by Calcein AM assay; assay type: functional, cell-based; conditions: U-266, 72 h
MDA-MB-468 = test: Cytotoxicity against human MDA-MB-468 cells assessed as reduction in cell growth incubated for 72 hrs by Calcein AM assay; assay type: functional, cell-based; conditions: MDA-MB-468, 72 h
HeLa [7] = test: Cytotoxicity against human HeLa cells assessed as reduction in cell growth incubated for 72 hrs by Calcein AM assay; assay type: functional, cell-based
K562 = test: Cytotoxicity against human K562 cells assessed as reduction in cell growth incubated for 72 hrs by Calcein AM assay; assay type: functional, cell-based; conditions: K562, 72 h
G-361 = test: Cytotoxicity against human G-361 cells assessed as reduction in cell growth incubated for 72 hrs by Calcein AM assay; assay type: functional, cell-based; conditions: G-361, 72 h
HT-29 = test: Cytotoxicity against human HT-29 cells assessed as reduction in cell growth incubated for 72 hrs by Calcein AM assay; assay type: functional, cell-based; conditions: HT-29, 72 h
MCF7 = test: Cytotoxicity against human MCF7 cells assessed as reduction in cell growth incubated for 72 hrs by Calcein AM assay; assay type: functional, cell-based; conditions: MCF7, 72 h
HCT-116 [8] = test: Cytotoxicity against human HCT-116 cells assessed as reduction in cell growth incubated for 72 hrs by Calcein AM assay; assay type: functional, cell-based; conditions: HCT-116, 72 h
RPMI-8226 = test: Cytotoxicity against human RPMI-8226 cells assessed as reduction in cell growth incubated for 72 hrs by Calcein AM assay; assay type: functional, cell-based; conditions: RPMI-8226, 72 h
HOS = test: Cytotoxicity against human HOS cells assessed as reduction in cell growth incubated for 72 hrs by Calcein AM assay; assay type: functional, cell-based
[9] = AUC in Wistar rat at 20 mg/kg,po and measured upto 24 hrs by LC/MS/MS analysis; assay type: ADME, organism-based; parameters: time < 24 hrs, dose 20 mg/kg, route po; conditions: in vivo
MV4-11 = test: Antiproliferative activity against human MV4-11 cells assessed as cell growth inhibition incubated for 72 hrs by resazurin assay; assay type: functional
[10] = AUC in Balb/c mouse at 10 mg/kg,po and measured upto 24 hrs by LC/MS/MS analysis; assay type: ADME, organism-based; parameters: time < 24 hrs, dose 10 mg/kg, route po; conditions: in vivo
MDA-MB-453 = test: Antiproliferative activity against human MDA-MB-453 cells assessed as cell growth inhibition incubated for 72 hrs by MTT assay; assay type: functional
[11] = Cytotoxicity against human L02 cells assessed as inhibition of cell viability incubated for 72 hrs by MTT assay; assay type: toxicity, cell-based
[12] = biological target: Protein cereblon/Cyclin-dependent kinase 6 (Homo sapiens, UniProt Q00534+Q96SW2); test: Protac activity at CRBN/CDK6 in human MDA-MB-231 cells assessed as CDK6 degradation incubated for 18 hrs by Western blot analysis; assay type: cell-based
[13] = biological target: Protein cereblon/Cyclin-dependent kinase 4 (Homo sapiens, UniProt P11802+Q96SW2); test: Protac activity at CRBN/CDK4 in human MDA-MB-231 cells assessed as CDK4 degradation incubated for 18 hrs by Western blot analysis; assay type: cell-based
[14] = biological target: Cyclin-dependent kinase 2 (Homo sapiens, UniProt P24941); test: Inhibition of CDK2 (unknown origin) incubated for 10 min using histone H1 as substrate in presence of gamma32P-ATP by radioactive assay
NCI-H522 = test: Cytotoxicity against human NCI-H522 cells assessed cell growth inhibition incubated for 2 days by MTT assay; assay type: functional, cell-based; conditions: NCI-H522, 48 h
[15] = Cytotoxicity against human L02 cells assessed cell growth inhibition incubated for 2 days by MTT assay; assay type: toxicity, cell-based
[16] = Cytotoxicity against human U87 cells assessed cell growth inhibition incubated for 2 days by MTT assay; assay type: functional, cell-based, U-87MG ATCC; conditions: U-87 MG, 48 h

Protein cereblon/Cyclin-dependent kinase 6, sequence (Q00534 whole entry): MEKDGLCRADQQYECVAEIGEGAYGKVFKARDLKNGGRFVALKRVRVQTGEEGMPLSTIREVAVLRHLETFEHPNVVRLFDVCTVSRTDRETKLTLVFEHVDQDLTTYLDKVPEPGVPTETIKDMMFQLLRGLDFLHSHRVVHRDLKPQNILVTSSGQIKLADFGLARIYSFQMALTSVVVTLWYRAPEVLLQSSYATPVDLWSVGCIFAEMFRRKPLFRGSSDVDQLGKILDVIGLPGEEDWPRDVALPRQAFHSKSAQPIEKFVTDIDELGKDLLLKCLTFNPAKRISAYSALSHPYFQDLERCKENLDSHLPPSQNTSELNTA
Protein cereblon/Cyclin-dependent kinase 6, sequence (Q96SW2 whole entry): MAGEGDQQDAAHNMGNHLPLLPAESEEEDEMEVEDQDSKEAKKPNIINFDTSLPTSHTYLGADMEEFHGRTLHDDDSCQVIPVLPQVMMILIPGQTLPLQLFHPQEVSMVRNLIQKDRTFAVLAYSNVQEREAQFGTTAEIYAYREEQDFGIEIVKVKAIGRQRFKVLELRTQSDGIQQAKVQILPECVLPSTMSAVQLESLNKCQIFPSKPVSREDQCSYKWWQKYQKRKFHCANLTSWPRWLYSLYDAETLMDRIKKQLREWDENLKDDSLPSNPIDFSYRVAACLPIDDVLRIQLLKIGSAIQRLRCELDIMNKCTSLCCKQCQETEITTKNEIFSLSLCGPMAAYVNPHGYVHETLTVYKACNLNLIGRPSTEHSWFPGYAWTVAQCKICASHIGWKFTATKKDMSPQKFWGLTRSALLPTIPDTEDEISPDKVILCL
Protein cereblon/Cyclin-dependent kinase 4, sequence (P11802 whole entry): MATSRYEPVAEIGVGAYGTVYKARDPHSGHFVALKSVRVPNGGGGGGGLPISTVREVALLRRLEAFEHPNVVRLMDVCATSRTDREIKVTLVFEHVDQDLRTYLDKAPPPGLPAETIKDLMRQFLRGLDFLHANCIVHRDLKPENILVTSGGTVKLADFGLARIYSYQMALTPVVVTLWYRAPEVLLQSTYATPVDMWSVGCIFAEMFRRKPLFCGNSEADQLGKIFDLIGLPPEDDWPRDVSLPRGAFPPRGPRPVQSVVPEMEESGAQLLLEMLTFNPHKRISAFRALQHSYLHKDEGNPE
Protein cereblon/Cyclin-dependent kinase 4, sequence (Q96SW2 whole entry): as the sequence (Q96SW2 whole entry) above
Cyclin-dependent kinase 4, sequence (P11802 whole entry): as the sequence (P11802 whole entry) above
Cyclin-dependent kinase 9, sequence (P50750 whole entry): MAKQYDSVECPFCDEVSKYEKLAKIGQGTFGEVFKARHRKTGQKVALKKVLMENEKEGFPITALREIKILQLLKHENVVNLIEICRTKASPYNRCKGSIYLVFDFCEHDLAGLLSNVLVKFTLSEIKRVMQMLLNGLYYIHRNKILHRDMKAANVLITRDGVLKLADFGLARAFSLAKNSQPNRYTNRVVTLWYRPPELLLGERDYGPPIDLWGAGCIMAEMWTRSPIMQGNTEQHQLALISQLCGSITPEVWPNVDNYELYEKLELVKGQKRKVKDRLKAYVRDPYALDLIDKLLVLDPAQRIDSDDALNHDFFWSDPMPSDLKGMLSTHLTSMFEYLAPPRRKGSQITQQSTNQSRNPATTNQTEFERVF

`CCC(CO)Nc1nc(NCc2ccccn2)c2ncn(CC)c2c1[N+](=O)[O-]` (configuration not stated) showed an IC50 (HL-60) of 3.71 µM, an IC50 (CDK2/Cyclin A2) of 0.021 µM and an IC50 (HCT-116 [1]) of 1.56 µM. It also gave an IC50 (A549 [2]) of 3.85 µM.
In the case of `CN(Cc1ccccc1)C(=O)CCc1c[nH]c2ccccc12`, the IC50 (A549 [3]) is reported as 16 µM, the IC50 [4] is reported as 10 µM and the IC50 (HeLa [5]) is reported as 25 µM. For the same compound, the IC50 (LS174T) was 11 µM and the IC50 (Bel-7402) was 14 µM.
Compound `O=C1N=NC(=O)/C(=C\Nc2ccc(-c3nc4ncccc4[nH]3)cc2)C(=O)N1` has an IC50 [6] of 0.5 µM.
With `CC[C@H](CO)Nc1nc(NCc2ccccc2N)c2[nH]nc(C(C)C)c2n1` the IC50 (CCRF-CEM) was 5 µM, the IC50 (U-266) was 5 µM and the IC50 (MDA-MB-468) was 5 µM. For the same compound, the IC50 (HeLa [7]) was 5 µM, the IC50 (K562) was 5 µM and the IC50 (G-361) was 5 µM. The IC50 (HT-29) was 5 µM, the IC50 (MCF7) was 5 µM and the IC50 (HCT-116 [8]) was 5 µM. The IC50 (RPMI-8226) was 5 µM and the IC50 (HOS) was 5 µM.
`CNc1nc(C)c(-c2nc(Nc3ccc(N4CCC(N(C)C)CC4)cn3)ncc2F)s1` gave an AUC at 24 h [9] of 4.4 µM·h, a GI50 (MV4-11) of 0.107 µM and an AUC at 24 h [10] of 4.3 µM·h. It also gave a GI50 (MDA-MB-453) of 0.325 µM.
For `O=C1CCC(N2C(=O)c3cccc(NC(=O)CCCCCCCn4cc(COc5c(O)cc(O)c6c(=O)cc(-c7ccccc7)oc56)nn4)c3C2=O)C(=O)N1` (configuration not stated), the IC50 at 72 hrs [11] was > 100 µM.
For `CC(=O)c1c(C)c2cnc(Nc3ccc(N4CCN(Cc5cn(CCCCCC(=O)Nc6cccc7c6C(=O)N(C6CCC(=O)NC6=O)C7=O)nn5)CC4)cn3)nc2n(C2CCCC2)c1=O` (configuration not stated), the DC50 [12] was 0.02 µM and the DC50 [13] was 0.02 µM.
Compound `Nc1c([N+](=O)[O-])cnc(NC2CCCCC2)c1[N+](=O)[O-]` has an IC50 [14] of 1.8 µM, an IC50 (NCI-H522) of 2.89 µM and an IC50 at 2 days [15] of 86.7 µM. The IC50 [16] was 3.19 µM.
